US10258602B2 (Ocera Therapeutics, Inc., priority 2007, dated 2019)

Molecular target: human growth hormone secretagogue receptor (hGHS-R1a) (Homo sapiens, UniProt Q92847)
Assay: Competitive radioligand binding assay (ghrelin receptor), standard method A
Conditions: binding activity at the human ghrelin receptor, standard method A
Excerpt: A competitive binding assay at the human growth hormone secretagogue receptor (hGHS-R1a) can be carried out analogously to assays described in the literature. (Bednarek, M. A.; et al. J. Med. Chem. 2000, 43, 4370-4376; Palucki, B. L.; et al. Bioorg. Med. Chem. Lett. […], 11, 1955-1957.) See also U.S. patent application Ser. Nos. 11/149,512 and 11/149,731. Binding activity at the gherlin receptor for representative compounds of the present invention is shown in the Examples below.

Sequence of human growth hormone secretagogue receptor (hGHS-R1a) (Q92847 whole entry): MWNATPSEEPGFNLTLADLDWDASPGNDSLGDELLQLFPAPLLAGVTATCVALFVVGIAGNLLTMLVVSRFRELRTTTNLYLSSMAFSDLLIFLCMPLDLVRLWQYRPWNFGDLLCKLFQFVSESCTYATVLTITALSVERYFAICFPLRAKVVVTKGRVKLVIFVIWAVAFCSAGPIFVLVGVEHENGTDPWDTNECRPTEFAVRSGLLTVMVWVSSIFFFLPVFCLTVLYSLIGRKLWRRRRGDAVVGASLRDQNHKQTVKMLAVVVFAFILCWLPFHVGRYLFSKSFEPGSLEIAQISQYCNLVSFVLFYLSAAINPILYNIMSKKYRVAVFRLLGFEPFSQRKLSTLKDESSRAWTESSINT

SMILES | Ki
CC[C@H](C)[C@@H]1NC[C@@H](C)Oc2c(F)cccc2CCCNC(=O)[C@@H](Cc2cccnc2)NC(=O)[C@@H](C)N(C)C1=O [Compound 974] | ≤ 100 nM
CC(C)C[C@H]1NC(=O)[C@@H](C)N(C)C(=O)[C@H](C2CCCCC2)NC[C@@H](C)Oc2ccccc2CCCNC1=O [Compound 1099] | ≤ 1 nM
C[C@@H]1C(=O)N[C@H]([C@@H](C)c2ccc(O)cc2)C(=O)NCCCc2ncccc2OCCN[C@@H](C2CC2)C(=O)N1C [Compound 1080] | ≤ 100 nM
CC(C)C[C@H]1NC(=O)[C@@H](C)N(C)C(=O)[C@H](C2CC2)NCCOc2ccccc2CC[C@@H](C)NC1=O [Compound 1086] | ≤ 100 nM
CC1CNC(C2CC2)C(=O)N(C)C(C)C(=O)NC(C(C)(C)C)C(=O)NCCCc2cccc(F)c2O1 (stereo not drawn) [Compound 1044] | ≤ 500 nM
C[C@@H]1CN[C@@H](C2CC2)C(=O)N(C)[C@H](C)C(=O)N[C@H](CC(=O)O)C(=O)NCCCc2ccccc2O1 [Compound 1036] | > 500 nM
C[C@@H]1CN[C@@H](C2CC2)C(=O)N(C)[C@H](C)C(=O)N[C@H](Cc2cccc(O)c2)C(=O)NCCCc2ncccc2O1 [Compound 1079] | ≤ 100 nM
C[C@@H]1CN[C@@H](C2CC2)C(=O)N(C)[C@H](C)C(=O)N[C@H](Cc2ccccc2)C(=O)NCCCc2ncccc2O1 [Compound 1028] | ≤ 100 nM
C[C@@H]1CN[C@@H](C2CC2)C(=O)N(C)[C@H](C)C(=O)N[C@H](CC2CCCCC2)C(=O)NCCCc2ccccc2O1 [Compound 1045] | ≤ 100 nM
C[C@@H]1CN[C@@H](C2CC2)C(=O)N(C)[C@H](C)C(=O)N[C@H](Cc2ccc(Cl)cc2)C(=O)NCCCc2cccc(F)c2O1 [Compound 936] | ≤ 100 nM
C[C@@H]1CN[C@@H](C2CC2)C(=O)N(C)[C@H](C)C(=O)N[C@H](Cc2ccc(F)c(F)c2)C(=O)NCCCc2ccccc2O1 [Compound 1040] | ≤ 100 nM
CC(C)C[C@H]1NC(=O)[C@@H](C)N(C)C(=O)[C@H](C2CC2)NCCOc2cnccc2CCCNC1=O [Compound 1021] | > 500 nM
CC(C)C[C@H]1NC(=O)[C@@H](C)N(C)C(=O)[C@H](C2CC2)NC[C@@H](C)Oc2cccnc2CC[C@H](C)NC1=O [Compound 1088] | ≤ 500 nM
C[C@@H]1C(=O)N[C@H](Cc2ccc(O)cc2)C(=O)NCCCc2cccc3c2OC(CN[C@@H](C2CC2)C(=O)N1C)C3 (stereo partly drawn) [Compound 1025] | ≤ 500 nM
C[C@@H]1C(=O)N[C@H]([C@@H](C)c2ccc(O)cc2)C(=O)NCCCc2nccc3c2O[C@H](CC3)CN[C@@H](C2CC2)C(=O)N1C [Compound 1076] | ≤ 100 nM
C[C@H]1CNC(=O)[C@@H](Cc2ccc(F)cc2)NC(=O)[C@@H](C)N(C)C(=O)[C@H](C2CC2)NC[C@@H](C)Oc2ccccc2C1 [Compound 1005] | ≤ 100 nM
CC(=O)Oc1c(Br)cc(C[C@H]2NC(=O)[C@@H](C)N(C)C(=O)[C@H](C3CC3)NC[C@@H](C)Oc3ccccc3CCCNC2=O)cc1Br [Compound 1066] | ≤ 100 nM
CC(C)CC1NC(=O)C(C)N(C)C(=O)C(C2CC2)NCC(C)OC2CCCCC2CCC(C)NC1=O (stereo not drawn) [Compound 1107] | ≤ 100 nM
CO[C@H](C)[C@@H]1NC[C@@H](C)Oc2cccnc2CCCNC(=O)[C@@H](Cc2ccc(F)cc2)NC(=O)[C@@H](C)N(C)C1=O [Compound 1032] | ≤ 500 nM

SMILES | Ki
C[C@@H]1C(=O)N[C@H](Cc2ccccc2)C(=O)NCCCc2ccncc2OCCN[C@@H](C2CC2)C(=O)N1C [Compound 1031] | ≤ 100 nM
C[C@@H]1CN[C@@H](C2CC2)C(=O)N(C)[C@H](C)C(=O)N[C@H](Cc2cc(Br)c(O)c(Br)c2)C(=O)NCCCc2ccccc2O1 [Compound 1053] | ≤ 100 nM
C[C@@H]1CN[C@@H](C2CC2)C(=O)N(C)[C@H](C)C(=O)N[C@H](Cc2ccccc2)C(=O)NCCCc2ccc(F)cc2O1 [Compound 876] | ≤ 100 nM
C[C@@H]1CN[C@@H](C2CC2)C(=O)N(C)[C@H](C)C(=O)N[C@H](Cc2c(F)c(F)c(F)c(F)c2F)C(=O)NCCCc2ccccc2O1 [Compound 1042] | ≤ 100 nM
C[C@@H]1C(=O)N[C@H](Cc2ccc(O)cc2)C(=O)NCCCc2cccc3c2O[C@@H](CC3)CN[C@@H](C2CC2)C(=O)N1C [Compound 1024] | ≤ 100 nM
CC(C)C[C@H]1NC(=O)[C@@H](C)N(C)C(=O)[C@H](C2CC2)NC[C@@H](C)Oc2c(Cl)cccc2CCCNC1=O [Compound 1006] | ≤ 500 nM
CC[C@H](C)[C@@H]1NC[C@@H](C)Oc2ccccc2CCCNC(=O)[C@@H](Cc2ccc(F)cc2)NC(=O)[C@@H](C)N(C)C1=O [Compound 855] | ≤ 100 nM
CC(C)C[C@H]1NC(=O)[C@@H](C)N(C)C(=O)[C@H](C2CC2)NC[C@@H]2CCc3cccc(c3O2)CCCNC1=O [Compound 1015] | ≤ 500 nM
CC1CNC(C2CC2)C(=O)N(C)C(C)C(=O)NC(CC2CCCC2)C(=O)NCCCc2ccccc2O1 (mixture of isomers) [Compound 1047] | ≤ 100 nM
C[C@@H]1C(=O)N[C@H](Cc2ccc(O)cc2)C(=O)N[C@@H](C)CCc2ccccc2OCCN[C@@H](C2CC2)C(=O)N1C [Compound 1083] | ≤ 100 nM
CC1CNC(C2CC2)C(=O)N(C)C(C)C(=O)NC(Cc2ccccc2O)C(=O)NCCCC2CCCCC2O1 (mixture of isomers) [Compound 1115] | ≤ 500 nM
C[C@@H]1C(=O)N[C@H](Cc2ccccc2Cl)C(=O)NCCCc2ccccc2OCCN[C@@H](C2CC2)C(=O)N1C [Compound 872] | ≤ 10 nM
C[C@@H]1CN[C@@H](C2CC2)C(=O)N(C)[C@H](C)C(=O)N[C@H]([C@H](C)O)C(=O)NCCCc2ccccc2O1 [Compound 1050] | > 500 nM
CC(C)CC1NC(=O)C(C)N(C)C(=O)C(C2CCCCC2)NCCOc2cc(F)ccc2CCCNC1=O (stereo not drawn) [Compound 1112] | ≤ 1 nM
CCC[C@@H]1NC[C@@H](C)Oc2ccccc2CCCNC(=O)[C@@H](Cc2ccc(Cl)cc2)NC(=O)[C@@H](C)N(C)C1=O [Compound 863] | ≤ 100 nM
C[C@@H]1CN[C@@H](C2CC2)C(=O)N(C)[C@H](C)C(=O)N[C@H](c2ccc(O)cc2)C(=O)NCCCc2ccccc2O1 [Compound 1103] | > 500 nM
CC1C(=O)NC(Cc2ccc(O)cc2)C(=O)NCCCc2ccc(F)cc2OCCNC(C2CCCCC2)C(=O)N1C (stereo not drawn) [Compound 1113] | ≤ 1 nM
COC(=O)C[C@H]1NC(=O)[C@@H](C)N(C)C(=O)[C@H](C2CC2)NC[C@@H](C)Oc2ccccc2CCCNC1=O [Compound 1090] | ≤ 500 nM
C[C@@H]1C(=O)N[C@H](Cc2ccc(Cl)cc2)C(=O)NCCCc2ccc(F)cc2OCCN[C@@H](C2CC2)C(=O)N1C [Compound 864] | ≤ 10 nM

SMILES | Ki
C[C@@H]1CN[C@@H](C2CC2)C(=O)N(C)[C@H](C)C(=O)N[C@H](C2CCCCC2)C(=O)NCCCc2ccccc2O1 [Compound 1046] | ≤ 100 nM
C[C@@H]1C(=O)N[C@H](Cc2ccc(F)cc2)C(=O)NCCCc2cccc3c2O[C@@H](CC3)CN[C@@H](C2CC2)C(=O)N1C [Compound 1016] | ≤ 100 nM
C[C@@H]1CN[C@@H](C2CC2)C(=O)N(C)[C@H](C)C(=O)N[C@H](Cc2ccccn2)C(=O)NCCCc2ccccc2O1 [Compound 972] | ≤ 100 nM
CC1CNC(C2CC2)C(=O)N(C)C(C)C(=O)NC(CC2CCCC2)C(=O)NCCCC2CCCCC2O1 (mixture of isomers) [Compound 1114] | ≤ 1 nM
C[C@@H]1CN[C@@H](C2CC2)C(=O)N(C)[C@H](C)C(=O)N[C@H](Cc2ccc(O)c(F)c2)C(=O)NCCCc2ccccc2O1 [Compound 1104] | ≤ 100 nM
C[C@@H]1CN[C@@H](C2CC2)C(=O)N(C)[C@H](C)C(=O)N[C@H]([C@H](C)c2ccc(O)cc2)C(=O)NCCCc2ncccc2O1 [Compound 1081] | > 500 nM
C[C@@H]1CN[C@@H](C2CC2)C(=O)N(C)[C@H](C)C(=O)N[C@H](C2CC2)C(=O)NCCCc2ccccc2O1 [Compound 1048] | > 500 nM
CC[C@H](C)[C@@H]1NC[C@@H](C)Oc2cccnc2CCCNC(=O)[C@@H](CC(C)C)NC(=O)[C@@H](C)N(C)C1=O [Compound 1000] | ≤ 500 nM
C[C@@H]1CCc2ccccc2O[C@H](C)CN[C@@H](C2CC2)C(=O)N(C)[C@H](C)C(=O)N[C@H](Cc2ccc(F)cc2)C(=O)N1 [Compound 1010] | ≤ 10 nM
CC1CNC(C2CC2)C(=O)N(C)C(C)C(=O)NC(Cc2ccccc2O)C(=O)NCCCc2ccccc2O1 (mixture of isomers) [Compound 1101] | ≤ 500 nM
CCC[C@@H]1NC[C@@H](C)Oc2ccccc2CCCNC(=O)[C@@H](Cc2ccc(OC)cc2)NC(=O)[C@@H](C)N(C)C1=O [Compound 866] | ≤ 100 nM
C[C@@H]1CN[C@@H](C2CC2)C(=O)N(C)[C@H](C)C(=O)N[C@H](Cc2ccc(F)cc2)C(=O)NCCCc2cc(F)c(F)cc2O1 [Compound 950] | ≤ 500 nM
C[C@@H]1CN[C@@H](C2CC2)C(=O)N(C)[C@H](C)C(=O)N[C@H]([C@@H](C)c2ccc(F)cc2)C(=O)NCCCc2ccccc2O1 [Compound 1034] | ≤ 100 nM
CC1CNC(C2CC2)C(=O)N(C)C(C)C(=O)NC(Cc2ccc(O)c(F)c2)C(=O)NCCCc2ccccc2O1 (mixture of isomers) [Compound 1049] | ≤ 100 nM
C[C@@H]1C(=O)N[C@H](Cc2ccc(O)cc2)C(=O)NCCCc2nccc3c2O[C@H](CC3)CN[C@@H](C2CC2)C(=O)N1C [Compound 1074] | ≤ 100 nM
CC[C@H](C)[C@@H]1NCCOc2cccnc2CCCNC(=O)[C@@H](CC(C)C)NC(=O)[C@@H](C)N(C)C1=O [Compound 987] | ≤ 500 nM
C[C@@H]1C(=O)N[C@H](Cc2ccc(F)cc2)C(=O)NCCCc2ccccc2OC(C)(C)CN[C@@H](C2CC2)C(=O)N1C [Compound 1003] | ≤ 100 nM
CC[C@H](C)[C@@H]1NCCOc2ccccc2CCCNC(=O)[C@@H](Cc2ccccc2)NC(=O)[C@@H](CF)N(C)C1=O [Compound 954] | ≤ 500 nM
C[C@@H]1CN[C@@H](C2CC2)C(=O)N(C)[C@H](C)C(=O)N[C@H](Cc2cc(F)c(F)c(F)c2)C(=O)NCCCc2ccccc2O1 [Compound 1041] | ≤ 100 nM
